Source: patent publication US10464922B2, “Metalloenzyme inhibitor compounds” (NQP 1598 LTD., priority 2015, dated 2019)
≈ marks a conversion by molar mass, not a printed value.

Tests used:
A. fumigatus = A. fumigatus MIC at 100% growth inhibition (CLSI M38-A2); format: cell-based, Aspergillus fumigatus; settings: 100% growth inhibition, range tested 8-0.0078 μg/mL, values given as ranges; for MIC: Aspergillus fumigatus, read-out: Aspergillus fumigatus MIC
Procedure: A. fumigatus MICs were determined at 100% growth inhibition following CLSI guidelines at a concentration range of 8-0.0078 μg/mL (CLSI M38-A2).

C. albicans (ATCC 90028) = experiment: Minimum inhibitory concentration, in vitro broth microdilution assay (CLSI M27-A2); format: cell-based, Candida albicans; settings: ATCC 90028, about 50% growth reduction, 2 days at 36° C., range tested 8-0.0078 μg/mL, values given as ranges; for MIC: Candida albicans, ATCC90028, 48 h, read-out: Candida albicans MIC
Procedure: The antifungal potency of the test compounds was measured using the in vitro broth microdilution assay under assay conditions described by the Clinical and Laboratory Standards Institute (CLSI M27-A2). The test compounds were dissolved in 100% DMSO, suspended completely by sonication or vortexing, diluted by 2-fold serial titrations in the same vehicle, for a total of 11 test concentrations. A 4 μL aliquot of each dilution was added to 196 μL of RPMI-1640+MOPS medium seeded with the C. albicans (ATCC 90028) suspension in wells of a 96 well plate (fungal cell count: 1×10^3 to 1×10^4 colony forming units per mL). The final volume was 200 μL in each well and the final DMSO concentration was 2 percent. The inoculated plates were incubated for 2 days at 36° C. Following incubation, the test plates were visually examined and wells were scored for growth to define the minimum inhibitory concentration. […] Each test substance was evaluated in duplicate. Vehicle-control and an active reference agent (e.g., posaconazole) were used as blank and positive controls, respectively.

Structure (SMILES)	MIC (A. fumigatus) [µg/mL]	MIC (C. albicans (ATCC 90028)) [µg/mL]	Aspergillus fumigatus MIC (A. fumigatus) [µg/mL]	Candida albicans MIC (C. albicans (ATCC 90028)) [ng/mL]
OC(c1ccc(N2CCN(c3ccc(-c4ccc(C(F)(F)[C@](O)(Cn5cnnn5)c5ccc(F)cc5F)nc4)cc3)CC2)nc1)C(F)(F)F (stereo partly drawn) [Example 34, (2R)-2-(2,4-difluorophenyl)-1,1-difluoro-3-(1H-tetrazol-1-yl)-1-(5-(4-(4-(5-(2,2,2-trifluoro-1-hydroxyethyl)pyridin-2-yl)piperazin-1-yl)phenyl)pyridin-2-yl) propan-2-ol]	0.25 to 1 (≈ 0.363 to 1.45 µM)	0.0078 to 0.01 (≈ 0.0113 to 0.0145 µM)	–	–
N#Cc1ccc(C2CCN(c3ccc(-c4ccc(C(F)(F)[C@](O)(Cn5cnnn5)c5ccc(F)cc5F)nc4)cc3)CC2)cc1 [Example 26, (R)-4-(1-(4-(6-(2-(2,4-difluorophenyl)-1,1-difluoro-2-hydroxy-3-(1H-tetrazol-1-yl)propyl)pyridin-3-yl)phenyl)piperidin-4-yl) benzonitrile]	0.25 to 1 (≈ 0.407 to 1.63 µM)	0.0078 to 0.01 (≈ 0.0127 to 0.0163 µM)	–	–
CN(C)Cc1ccc(N2CCN(c3ccc(-c4ccc(C(F)(F)[C@](O)(Cn5cnnn5)c5ccc(F)cc5F)nc4)cc3)CC2)cn1 [Example 33, (R)-2-(2,4-difluorophenyl)-1-(5-(4-(4-(6-((dimethylamino)methyl)pyridin-3-yl)piperazin-1-yl)phenyl)pyridin-2-yl)-1,1-difluoro-3-(1H-tetrazol-1-yl) propan-2-ol]	1 to 4 (≈ 1.54 to 6.18 µM)	0.01 to 0.1 (≈ 0.0154 to 0.154 µM)	–	–
CC[C@@H]([C@H](C)O)n1ncn(-c2ccc(N3CCN(c4ccc(-c5ccc(C(F)(F)[C@](O)(Cn6cnnn6)c6ccc(F)cc6)nc5)cc4)CC3)cn2)c1=O [109(+), (+)-4-(5-(4-(4-(6-((R)-1,1-difluoro-2-(4-fluorophenyl)-2-hydroxy-3-(1H-tetrazol-1-yl)propyl)pyridin-3-yl)phenyl)piperazin-1-yl)pyridin-2-yl)-2-((2S,3S)-2-hydroxypentan-3-yl)-2,4-dihydro-3H-1,2,4-triazol-3-one]	–	–	0.25 to 1.0	≤7.8 to 10
OC(CC(F)(F)F)c1ccc(N2CCN(c3ccc(-c4ccc(C(F)(F)[C@](O)(Cn5cnnn5)c5ccccc5F)nc4)cc3)CC2)cn1 (single isomer, unassigned; (+)) [122(+)]	–	–	0.25 to 1.0	≤7.8 to 10
CCC(C(C)O)n1ccc(N2CCN(c3ccc(-c4ccc(C(F)(F)[C@](O)(Cn5cnnn5)c5ccc(F)cc5F)nc4)cc3)CC2)cc1=O (stereo partly drawn) [Example 37, 4-(4-(4-(6-((R)-2-(2,4-difluorophenyl)-1,1-difluoro-2-hydroxy-3-(1H-tetrazol-1-yl)propyl)pyridin-3-yl)phenyl)piperazin-1-yl)-1-(2-hydroxypentan-3-yl) pyridin-2(1H)-one]	> 8	0.01 to 0.1 (≈ 0.0144 to 0.144 µM)	–	–
OC(c1cn(-c2ccc(N3CCN(c4ccc(-c5ccc(C(F)(F)C(O)(Cn6cnnn6)c6ccccc6F)nc5)cc4)CC3)cn2)nn1)C(F)(F)F (single isomer, unassigned; (-)) [110(−), (−)-1,1-difluoro-2-(2-fluorophenyl)-3-(1H-tetrazol-1-yl)-1-(5-(4-(4-(6-(4-(2,2,2-trifluoro-1-hydroxyethyl)-1H-1,2,3-triazol-1-yl)pyridin-3-1)piperazin-1-yl)phenyl)pyridin-2-yl) propan-2-ol]	–	–	>8	>8000
CC(C)C(O)c1ccc(N2CCN(c3ccc(-c4ccc(C(F)(F)[C@](O)(Cn5cnnn5)c5ccc(F)cc5F)nc4)cc3)CC2)cn1 (stereo partly drawn) [Example 45, 1-(5-(4-(4-(6-((R)-2-(2,4-difluorophenyl)-1,1-difluoro-2-hydroxy-3-(1H-tetrazol-1-yl)propyl)pyridin-3-yl)phenyl)piperazin-1-yl)pyridin-2-yl)-2-methylpropan-1-ol]	0.25 to 1 (≈ 0.377 to 1.51 µM)	0.0078 to 0.01 (≈ 0.0118 to 0.0151 µM)	–	–
N#Cc1ccc(N2CCN(c3ccc(-c4ccc(C(F)(F)[C@](O)(Cn5cnnn5)c5ccc(F)cc5F)nc4)cc3)CC2=O)cc1 [Example 25, (R)-4-(4-(4-(6-(2-(2,4-difluorophenyl)-1,1-difluoro-2-hydroxy-3-(1H-tetrazol-1-yl)propyl)pyridin-3-yl)phenyl)-2-oxopiperazin-1-yl) benzonitrile]	0.25 to 1 (≈ 0.398 to 1.59 µM)	0.0078 to 0.01 (≈ 0.0124 to 0.0159 µM)	–	–

The next lines start with the values.

MIC (A. fumigatus) [µg/mL]	MIC (C. albicans (ATCC 90028)) [µg/mL]	Aspergillus fumigatus MIC (A. fumigatus) [µg/mL]	Candida albicans MIC (C. albicans (ATCC 90028)) [ng/mL]	Structure (SMILES)
0.25 to 1 (≈ 0.332 to 1.33 µM)	0.0078 to 0.01 (≈ 0.0103 to 0.0133 µM)	–	–	O=c1n(CC(F)(F)F)ccn1-c1ccc(N2CCN(c3ccc(-c4ccc(C(F)(F)[C@](O)(Cn5cnnn5)c5ccc(F)cc5F)nc4)cc3)CC2)cc1 [Example 96]
–	–	0.062 to 0.25	10 to 100	CC[C@@H]([C@H](C)O)n1ncn(-c2ccc(N3CCN(c4ccc(-c5ccc(C(F)(F)[C@](O)(Cn6cnnn6)c6ccc(F)cc6F)nc5)cc4)CC3)cn2)c1=O [Example 82, 4-(5-(4-(4-(6-((R)-2-(2,4-difluorophenyl)-1,1-difluoro-2-hydroxy-3-(1H-tetrazol-1-yl)propyl)pyridin-3-yl)phenyl)piperazin-1-yl)pyridin-2-yl)-2-((2S,3S)-2-hydroxypentan-3-yl)-2,4-dihydro-3H-1,2,4-triazol-3-one]
0.25 to 1 (≈ 0.364 to 1.45 µM)	0.0078 to 0.01 (≈ 0.0113 to 0.0145 µM)	–	–	OC(c1cccc(N2CCN(c3ccc(-c4ccc(C(F)(F)[C@](O)(Cn5cnnn5)c5ccc(F)cc5F)nc4)cc3)CC2)c1)C(F)(F)F (stereo partly drawn) [Example 86, (2R)-2-(2,4-difluorophenyl)-1,1-difluoro-3-(1H-tetrazol-1-yl)-1-(5-(4-(4-(3-(2,2,2-trifluoro-1-hydroxyethyl)phenyl)piperazin-1-yl)phenyl)pyridin-2-yl) propan-2-ol]
0.25 to 1 (≈ 0.331 to 1.33 µM)	0.0078 to 0.01 (≈ 0.0103 to 0.0133 µM)	–	–	OC(c1cn(-c2ccc(N3CCN(c4ccc(-c5ccc(C(F)(F)[C@](O)(Cn6cnnn6)c6ccc(F)cc6F)nc5)cc4)CC3)cc2)nn1)C(F)(F)F (stereo partly drawn) [Example 94, (2R)-2-(2,4-difluorophenyl)-1,1-difluoro-3-(1H-tetrazol-1-yl)-1-(5-(4-(4-(4-(4-(2,2,2-trifluoro-1-hydroxyethyl)-1H-1,2,3-triazol-1-yl)phenyl)piperazin-1-yl)phenyl)pyridin-2-yl) propan-2-ol]
0.25 to 1 (≈ 0.331 to 1.32 µM)	0.0078 to 0.01 (≈ 0.0103 to 0.0132 µM)	–	–	OC(c1cn(-c2ccc(N3CCN(c4ccc(-c5ccc(C(F)(F)[C@](O)(Cn6cnnn6)c6ccc(F)cc6F)nc5)cc4)CC3)cn2)nn1)C(F)(F)F (stereo partly drawn) [Example 111, (2R)-2-(2,4-difluorophenyl)-1,1-difluoro-3-(1H-tetrazol-1-yl)-1-(5-(4-(4-(6-(4-(2,2,2-trifluoro-1-hydroxyethyl)-1H-1,2,3-triazol-1-yl)pyridin-3-yl)piperazin-1-yl)phenyl)pyridin-2-yl) propan-2-ol]
0.062 to 0.25 (≈ 0.0851 to 0.343 µM)	0.01 to 0.1 (≈ 0.0137 to 0.137 µM)	–	–	CCC(C)n1ncn(-c2ccc(N3CCN(c4ccc(-c5ccc(C(F)(F)[C@](O)(Cn6cnnn6)c6ccc(F)cc6F)nc5)cc4)CC3)cc2)c1=O (stereo partly drawn) [Example 55, 2-(sec-butyl)-4-(4-(4-(4-(6-((R)-2-(2,4-difluorophenyl)-1,1-difluoro-2-hydroxy-3-(1H-tetrazol-1-yl)propyl)pyridin-3-yl)phenyl)piperazin-1-yl)phenyl)-2,4-dihydro-3H-1,2,4-triazol-3-one]
> 8	0.01 to 0.1 (≈ 0.0139 to 0.139 µM)	–	–	O[C@@](Cn1cnnn1)(c1ccc(F)cc1F)C(F)(F)c1ccc(-c2ccc(N3CCN(c4ccc5ncn(Cc6ccccc6)c5c4)CC3)cc2)cn1 [Example 98, (R)-1-(5-(4-(4-(1-benzyl-1H-benzo [d]imidazol-6-yl)piperazin-1-yl)phenyl)pyridin-2-yl)-2-(2,4-difluorophenyl)-1,1-difluoro-3-(1H-tetrazol-1-yl) propan-2-ol]
0.062 to 0.25 (≈ 0.0822 to 0.331 µM)	0.0078 to 0.01 (≈ 0.0103 to 0.0133 µM)	–	–	O=c1n(-c2ccc(N3CCN(c4ccc(-c5ccc(C(F)(F)[C@](O)(Cn6cnnn6)c6ccc(F)cc6F)nc5)cc4)CC3)cc2)cnn1CC(F)(F)F [Example 58, (R)-4-(4-(4-(4-(6-(2-(2,4-difluorophenyl)-1,1-difluoro-2-hydroxy-3-(1H-tetrazol-1-yl)propyl)pyridin-3-yl)phenyl)piperazin-1-yl)phenyl)-2-(2,2,2-trifluoroethyl)-2,4-dihydro-3H-1,2,4-triazol-3-one]
0.25 to 1 (≈ 0.329 to 1.32 µM)	0.0078 to 0.01 (≈ 0.0103 to 0.0132 µM)	–	–	CCC(C(C)O)n1ncn(-c2ccc(N3CCN(c4ccc(-c5ccc(C(F)(F)[C@](O)(Cn6cnnn6)c6ccc(F)cc6F)nc5)cc4)CC3)cc2)c1=O (stereo partly shown) [Example 93]
> 8	0.0078 to 0.01 (≈ 0.0105 to 0.0134 µM)	–	–	O=C(Nc1ccc(N2CCN(c3ccc(-c4ccc(C(F)(F)[C@](O)(Cn5cnnn5)c5ccc(F)cc5F)nc4)cc3)CC2)cc1)C(O)CC(F)(F)F (stereo partly drawn) [Example 105, N-(4-(4-(4-(6-((R)-2-(2,4-difluorophenyl)-1,1-difluoro-2-hydroxy-3-(1H-tetrazol-1-yl)propyl)pyridin-3-yl)phenyl)piperazin-1-yl)phenyl)-4,4,4-trifluoro-2-hydroxybutanamide]
0.25 to 1 (≈ 0.337 to 1.35 µM)	0.0078 to 0.01 (≈ 0.0105 to 0.0135 µM)	–	–	CCC(CC)n1ncn(-c2ccc(N3CCN(c4ccc(-c5ccc(C(F)(F)[C@](O)(Cn6cnnn6)c6ccc(F)cc6F)nc5)cc4)CC3)cc2)c1=O [Example 66, (R)-4-(4-(4-(4-(6-(2-(2,4-difluorophenyl)-1,1-difluoro-2-hydroxy-3-(1H-tetrazol-1-yl)propyl)pyridin-3-yl)phenyl)piperazin-1-yl)phenyl)-2-(pentan-3-yl)-2,4-dihydro-3H-1,2,4-triazol-3-one]
